Source: patent publication US20040185510A1, “Use of labelled CCK-B receptor ligands for the detection and localization of malignant human tumours” (priority 1996, published 2004)
Non-standard residues stand in square brackets, D forms with d. No end group written: not given here. Nle = CCCC[C@H](N)C(=O)O

Assays:
[1] = target: T1, CCK-B receptors in medullary thyroid carcinoma (MTC) tissue sections (Homo sapiens, UniProt P32239); assay: Receptor autoradiography: displacement of [125I]-CCK-10 analog (compound 15) binding to MTC tissue sections; conditions: increasing concentrations of unlabelled peptide, optical density in tumour area
T1 construct: Receptor autoradiography is performed on 10- and 20-μm thick cryostat sections of the various tumour samples; from tissue; host or cells: human medullary thyroid carcinoma (MTC) tissue sections
T1 sequence (P32239 1-447): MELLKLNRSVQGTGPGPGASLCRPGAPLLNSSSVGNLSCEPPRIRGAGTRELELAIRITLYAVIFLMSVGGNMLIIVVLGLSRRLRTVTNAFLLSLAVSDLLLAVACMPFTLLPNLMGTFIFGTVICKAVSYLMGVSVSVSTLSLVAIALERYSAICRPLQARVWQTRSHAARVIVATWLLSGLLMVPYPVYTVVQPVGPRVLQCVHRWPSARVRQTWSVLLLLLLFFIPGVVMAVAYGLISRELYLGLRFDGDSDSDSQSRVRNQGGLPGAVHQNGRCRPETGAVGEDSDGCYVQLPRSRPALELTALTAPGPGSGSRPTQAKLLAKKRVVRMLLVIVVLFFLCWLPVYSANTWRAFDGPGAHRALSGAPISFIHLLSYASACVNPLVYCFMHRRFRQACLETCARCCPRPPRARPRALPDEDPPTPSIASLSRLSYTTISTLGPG
Description: Receptor autoradiography is performed on 10- and 20-μm thick cryostat sections of the various tumour samples, as described by Reubi et al. (Cancer Res. 1990, 50, 5969-5977).
The tissues are cut on a cryostat, mounted on microscopes slides, and then stored at −20° C. for at least 3 days to improve adhesion of the tissue to the slide. The slide-mounted tissue sections are allowed to reach room temperature and are preincubated in 50 mmol/l Tris-HCl, 130 mmol/l NaCl, 4.7 mmol/l KCl, 5 mmol/l MgCl2, 1 mmol/l ethylene glycol-bi(β-aminoethylether)-N,N,N′,N′-tetraacetic acid, and 0.5% bovine serum albumin, pH 7.4 (preincubation solution), for 30 min. at 25° C. […] The sections are subsequently exposed to a 3H-Ultrofilm for 1 week, to detect the precise location of the radioactivity. […]
Tissue sections are incubated with 20,000 cpm/100 μl [^125I]-CCK-10 and increasing concentrations of unlabelled CCK-8 (unsulfated)(▴), CCK-8 (sulfated) (•) or somastotatin (∘). Each point represents the optical density of binding measured in the tumour area. […]
The displacement curves of DTPA substituted CCK-analogs, prepared as described in Example 2, are measured in order to determine the effect of the DTPA group and of substitution of some amino acids by other amino acids. […]
Each point represents the optical density of binding measured in the tumour area. […]

[2] = target: T1, CCK-B receptors in medullary thyroid carcinoma (MTC) tissue sections; assay: Receptor autoradiography: displacement of [125I]-desulfated-CCK-10 (compound 13 or 14) binding to MTC tissue sections; conditions: for affinity of the mono 125I-iodinated radioligand: the two mono-iodinated compounds compared with each other
Description: The tissues are cut on a cryostat, mounted on microscopes slides, and then stored at −20° C. for at least 3 days to improve adhesion of the tissue to the slide. The slide-mounted tissue sections are allowed to reach room temperature and are preincubated in 50 mmol/l Tris-HCl, 130 mmol/l NaCl, 4.7 mmol/l KCl, 5 mmol/l MgCl2, 1 mmol/l ethylene glycol-bi(β-aminoethylether)-N,N,N′,N′-tetraacetic acid, and 0.5% bovine serum albumin, pH 7.4 (preincubation solution), for 30 min. at 25° C. The slides are then incubated in a solution containing the same medium as the preincubation solution except the bovine serum albumin is omitted, and the following compounds are added: 20000 dpm/100 μl of ^125I-CCK, 0.025% bacitracin, 1 mmol/l dithiothreitol, 2 μg/ml chymostatin, and 4 μg/ml leupeptin, pH=6.5. The slides are incubated at room temperature with the radioligand for 150 min., as described by Mantyh et al. (Gasteroenterology 1994, 107, 1019-30). To estimate non-specific binding, paired serial sections are incubated as described above, except that CCK-8 (sulfated) is added to the incubation medium. After the incubation, the slides are rinsed with four washes of 30 sec each in ice-cold preincubation solution, pH 7.4, dipped in ice-cold water, and then quickly dried in a refrigerator under a stream of cold air. The sections are subsequently exposed to a 3H-Ultrofilm for 1 week, to detect the precise location of the radioactivity.
Each point represents the optical density of binding measured in the tumour area. Non-specific binding is subtracted from all values.

Row | Substance | displacement of [125I]-CCK-10 analog (compound 15) binding [1] | affinity of the mono 125I-iodinated radioligand [2] | also measured
1 | ^115In-DTPA-DAsp-Tyr-Nle-Gly-Trp-Nle-Asp-Phe-NH2 [compound 26] | complete displacement | – | –
2 | D-Tyr-Gly-Asp-[^125I-Tyr]-Nle-Gly-Trp-Nle-Asp-Phe-NH2 [compound 14] | – | same affinity | –
3 | [dY]GDY[Nle]GW[Nle]DF-NH2 [compound 12] | – | – | displacement of [125I]-desulfated-CCK-10 (compound 13 or 14) binding ([2]; increasing concentrations of unlabelled peptide): complete displacement

Continued, in another order:

Row | displacement of [125I]-CCK-10 analog (compound 15) binding [1] | affinity of the mono 125I-iodinated radioligand [2] | Substance | also measured
4 | – | same affinity | [^125I-D-Tyr]-Gly-Asp-Tyr-Nle-Gly-Trp-Nle-Asp-Phe-NH2 [compound 13] | –
5 | complete displacement | – | ^115In-DTPA-Asp-Tyr-Nle-Gly-Trp-Nle-Asp-Phe-NH2 [compound 25] | –
